Values after ≈ are worked out from the molar mass of the structure shown. Where no end group is shown, it is not given here.
What was measured:
[1] = system: E. faecalis ATCC 700802 - VRE; assay type: cell-based, Enterococcus faecalis; settings: ATCC 700802, 24 h
Protocol: (§1) Fig. 2 Antimicrobial activity and secondary structure of computationally designed peptides. a, Structure prediction of the synthesized peptides. b, Heatmap of the antimicrobial activities of the peptides against 11 clinically relevant pathogens, including four strains resistant to conventional antibiotics. Briefly, 10^6 bacterial cells and serially diluted peptides (1-64 μmol l^−1) were incubated at 37 °C. One day after treatment, the optical density at 600 nm was measured in a microplate reader to evaluate bacterial growth in the presence of the peptides. MIC values in the heatmap are the mode of the replicates in each condition. c–f, Ternary plots showing the percentage of secondary structure for each peptide (at 50 μmol l^−1) in four different solvents: water (c), 60% TFE in water (d), 10 mmol l^−1 SDS in water (e) and 50% methanol (MeOH) in water (f). Secondary structure fractions were calculated using the BeStSel server. […] An error of one column cannot be fully excluded. / Panel b: AT1, AT2, AT3 and all blank cells print no number and are left out.
(§2) Broth microdilution assays[64] were conducted to establish the MIC for each peptide. Peptides were added to untreated polystyrene 96-well microtiter plates and serially diluted twofold in sterile water, ranging from 1 to 64 μmol l^−1. A bacterial inoculum at a concentration of 10^6 CFU ml^−1 in LB medium was then mixed in a 1:1 ratio with the peptide solution. […] Each assay was performed in three independent replicates.

[2] = system: E. faecium ATCC 700221 - VRE; assay type: cell-based; settings: ATCC 700221, 24 h
Protocol: as §1, §2

HEK293T cells = experiment: Cytotoxicity, MTT assay; assay type: cell-based, human; settings: 24 h
Protocol: Fig. 3 Mechanism of action and cytotoxic activity of designed peptides. a, To assess whether the peptides act on bacterial membranes, all active peptides against A. baumannii American Type Culture Collection (ATCC) 19606 were subjected to outer-membrane permeabilization, and peptides active against A. baumannii ATCC 19606 and vancomycin-resistant E. faecalis ATCC 700802 were tested in cytoplasmic-membrane depolarization assays. b, The fluorescent probe NPN was used to assess membrane permeabilization induced by the tested peptides. c,d, The fluorescent probe DiSC3-5 was used to evaluate membrane depolarization caused by the designed peptides in A. baumannii ATCC 19606 (c) and vancomycin-resistant E. faecalis ATCC 700802 (d). […] All experiments were performed in three independent replicates. Panel a created with BioRender.com. Source data TEXT PRINTED IN THE PICTURE: (e) AT1: CC50 (μmol l^-1), HEK293T cells: 2,758 | (e) AT2: CC50 (μmol l^-1), HEK293T cells: 2 × 10^37 | (e) AT3: CC50 (μmol l^-1), HEK293T cells: 269 | (e) AT4: CC50 (μmol l^-1), HEK293T cells: 3,015 | (e) AT5: CC50 (μmol l^-1), HEK293T cells: 6 × 10^41 | (e) NE1: CC50 (μmol l^-1), HEK293T cells: 6 × 10^33 | (e) NE2: CC50 (μmol l^-1), HEK293T cells: 507 | (e) NE3: CC50 (μmol l^-1), HEK293T cells: 655 | (e) NE4: CC50 (μmol l^-1), HEK293T cells: 2 × 10^32 | (e) NG1: CC50 (μmol l^-1), HEK293T cells: 351 | (e) NG2: CC50 (μmol l^-1), HEK293T cells: 1 × 10^35 | (e) NG3: CC50 (μmol l^-1), HEK293T cells: 2 × 10^46 DOUBTS OF THE COPYIST ABOUT THIS PICTURE: AT2, CC50: small exponent, 37 or 57 / AT5, CC50: small exponent, 41 uncertain / NE1, CC50: small exponent, 33 or 38 / NE4, CC50: small exponent, 32 or 52 / NG2, CC50: small exponent, 35 or 36 / NG3, CC50: small exponent, 46 or 48 […]
HEK293T cells were obtained from the ATCC (CRL-3216). The cells were cultured in high-glucose DMEM supplemented with 1% penicillin and streptomycin (antibiotics) and 10% fetal bovine serum and grown at 37 °C in a humidified atmosphere containing 5% CO2.
One day before the experiment, an aliquot of 100 μl of the cells at 50,000 cells ml^−1 was seeded into each well of the cell-treated 96-well plates used in the experiment (that is, 5,000 cells per well)[45]. The attached HEK293T cells were then exposed to increasing concentrations of the peptides (4–64 μmol l^−1) for 24 h. After the incubation period, we performed the (3-(4,5-dimethylthiazol-2-yl)-2,5-diphenyltetrazolium bromide) tetrazolium reduction assay (MTT assay)[45]. […] The resulting salts were then resuspended in hydrochloric acid (0.04 mol l^−1) in anhydrous isopropanol and quantified by spectrophotometric measurements of absorbance at 570 nm. […]

[3] = system: 11 clinically relevant strains, including the ESKAPEE pathogens; experiment: MIC against the whole strain panel; assay type: cell-based; settings: 11 strains, peptides 1-64 μmol l^-1
Source text: We synthesized 12 sequences selected for their ease of synthesis and low aggregation potential: five from AT, four from NE and three from NG. We excluded the ND group because its peptides were challenging to synthesize and solubilize. We determined their minimum inhibitory concentrations (MICs) against 11 clinically relevant strains, including the ESKAPEE pathogens. […] Further investigation is needed to confirm this hypothesis.
Fig. 2 Antimicrobial activity and secondary structure of computationally designed peptides. a, Structure prediction of the synthesized peptides. b, Heatmap of the antimicrobial activities of the peptides against 11 clinically relevant pathogens, including four strains resistant to conventional antibiotics. Briefly, 10^6 bacterial cells and serially diluted peptides (1-64 μmol l^−1) were incubated at 37 °C. One day after treatment, the optical density at 600 nm was measured in a microplate reader to evaluate bacterial growth in the presence of the peptides. MIC values in the heatmap are the mode of the replicates in each condition. c–f, Ternary plots showing the percentage of secondary structure for each peptide (at 50 μmol l^−1) in four different solvents: water (c), 60% TFE in water (d), 10 mmol l^−1 SDS in water (e) and 50% methanol (MeOH) in water (f). Secondary structure fractions were calculated using the BeStSel server. […]

A. baumannii ATCC 19606 [4] = experiment: Cytoplasmic-membrane depolarization, DiSC3-5; assay type: cell-based, Acinetobacter baumannii; settings: DiSC3-5 fluorescence, peptides at their MIC, 60 min
Protocol: Fig. 3 Mechanism of action and cytotoxic activity of designed peptides. a, To assess whether the peptides act on bacterial membranes, all active peptides against A. baumannii American Type Culture Collection (ATCC) 19606 were subjected to outer-membrane permeabilization, and peptides active against A. baumannii ATCC 19606 and vancomycin-resistant E. faecalis ATCC 700802 were tested in cytoplasmic-membrane depolarization assays. b, The fluorescent probe NPN was used to assess membrane permeabilization induced by the tested peptides. c,d, The fluorescent probe DiSC3-5 was used to evaluate membrane depolarization caused by the designed peptides in A. baumannii ATCC 19606 (c) and vancomycin-resistant E. faecalis ATCC 700802 (d). […] All experiments were performed in three independent replicates. […]
The cytoplasmic-membrane depolarization assay was performed using the membrane-potential-sensitive dye DiSC3-5. […] Membrane depolarization was then followed by reading changes in the fluorescence (λex = 622 nm, λem = 670 nm) over time for 60 min. The relative fluorescence was calculated using the untreated control (buffer + bacteria + fluorescent dye) as baseline and the following equation was applied to reflect the percentage difference between the baselines and the sample: percentagedifference=100×(fluorescencesample−fluorescenceuntreatedcontrol)/fluorescenceuntreatedcontrol. […]

A. baumannii ATCC 19606 [5] = assay type: cell-based, Acinetobacter baumannii; settings: ATCC 19606, 24 h
Protocol: as §1
In this study, we used the following pathogenic bacterial strains: A. baumannii ATCC 19606, E. coli AIC221 (E. coli MG1655 phnE_2::FRT (control strain for AIC222)) and E. coli AIC222 (E. coli MG1655 pmrA53 phnE_2::FRT (polymyxin resistant; colistin-resistant strain)), Klebsiella pneumoniae ATCC 13883, Pseudomonas aeruginosa PAO1, P. aeruginosa PA14 and Staphylococcus aureus ATCC 12600. All pathogens were grown in Luria–Bertani (LB) broth and on LB agar. Pseudomonas isolation (P. aeruginosa strains) agar plates were exclusively used in the case of Pseudomonas species. In all the experiments, bacteria were inoculated from one isolated colony and grown overnight (16 h) in liquid medium at 37 °C. On the following day, inocula were diluted 1:100 in fresh media and incubated at 37 °C to mid-logarithmic phase.
as §2

[6] = Mouse weight in the skin abscess model; design: species or system CD-1 mice; settings: in vivo
Protocol: The backs of six-week-old female CD-1 mice under anaesthesia were shaved and injured with a superficial linear skin abrasion made with a needle. An aliquot of A. baumannii ATCC 19606 (2 × 10^6 CFU ml^−1; 20 μl) previously grown in LB medium until 0.5 optical density ml^−1 (optical value at 600 nm) and then washed twice with sterile PBS (pH 7.4, 9,391 g for 3 min) was added to the scratched area. Peptides diluted in sterile water at MIC value were administered to the wound area 1 h after the infection. Two and four days after infection animals were euthanized, and the scarified skin was excised, homogenized using a bead beater (25 Hz for 20 min), tenfold serially diluted, and plated on McConkey agar plates for CFU quantification. The experiments were performed using six mice per group. Mice were housed in groups of three and maintained under a 12-h light/dark cycle at 22 °C with humidity controlled at 50%. The skin abscess infection mouse model was revised and approved by University Laboratory Animal Resources from the University of Pennsylvania (protocol 806763).
Figure S6. Cytotoxicity and anti-infective activity of designed peptides. (a) Cytotoxic effects of increasing concentrations ([…]) of each peptide on human embryonic kidney (HEK293T) cells after 24 h of treatment. Mouse weight was monitored throughout the duration of the (b) skin abscess model (4 days total) and the (e) deep thigh infection model (8 days total) to assess potential toxic effects of both the bacterial load and the designed peptides. (c) Schematic of the neutropenic thigh infection mouse model, where the designed peptides were administered intraperitoneally. Anti-infective activity against A. baumannii ATCC 19606 was evaluated 4 days after intraperitoneal peptide administration (n = 6). (d) Four days after intraperitoneal injection, NE2 at its MIC (32 µmol L-1) inhibited by […]
Statistical significance in panel d was determined using one-way ANOVA followed by Dunnett’s test; P values are shown in the graphs. […]

Compound	MIC [1] [µM]	MIC [2] [µM]	CC50, cytotoxic concentration leading to 50% cell lysis (HEK293T cells) [µM]	also measured
IWHAAVLHFAIS [AT5]	64	32		
HWHLILHFHACH [NG2]	64	64		
HWHNKVLHWHIQ [AT3]			268.9	MIC against at least one strain / activity in the panel [3]: inactive
HWHAILIHFHFA [AT1]			2758	MIC against at least one strain / activity in the panel [3]: inactive
CC[C@H](C)[C@H](NC(=O)[C@H](CS)NC(=O)[C@H](CC(C)C)NC(=O)[C@H](Cc1c[nH]c2ccccc12)NC(=O)[C@H](C)NC(=O)[C@H](CCSC)NC(=O)[C@H](C)NC(=O)[C@H](Cc1c[nH]cn1)NC(=O)[C@@H]1CCCN1)C(=O)N[C@@H](CCCNC(=N)N)C(=O)N[C@@H](Cc1ccccc1)C(=O)N[C@@H](Cc1c[nH]cn1)C(=O)O [NE1]	8 (≈ 11.9 µg/mL)	16 (≈ 23.7 µg/mL)		cytoplasmic-membrane depolarization (A. baumannii ATCC 19606 [4]): particularly effective; MIC (A. baumannii ATCC 19606 [5]): 32 µM (≈ 47.4 µg/mL)
WHFHVWIHCIAF [NE3]	16	32	655.4	
FKLCFVLHFVAL [NE4]	8			
C[C@H]1COc2c(N3CCN(C)CC3)c(F)cc3c(=O)c(C(=O)O)cn1c23 [Levofloxacin, reference compound]				mouse weight (day 0 = 100) [6]: 105

Reference: publication PMC12552119, “Tailored structured peptide design with a key-cutting machine approach” (Nature Machine Intelligence, 2025)
